# In patent publication US9645134B1, “Isotopically-labeled solvents and the use of same in testing e-cigarettes” (Celerion, Inc., priority 2013, dated 2017):
# Where two headings read alike, the source gives them in different places.
# Columns and labels:
# [1] = clinical study: plasma labeled and unlabeled PG by LC-MS/MS after vaporizer use or second-hand exposure; assay type: in vivo, human
# Description: A clinical study protocol was generated. The objectives of this study were to measure C13-labeled PG in blood and to evaluate the extent of second-hand exposure to PG and nicotine during use of a commercially-available electronic nicotine delivery system (vaporizer).
# All subjects completed screening procedures and checked in to the clinic on the morning of the Test Visit. All subjects remained in the clinic until the completion of the final study procedure later that day.
# Following completion of check-in procedures, all subjects were seated in a room together approximately 30 minutes prior to the start of product administration. Subjects in the vaping group began using the vaporizers as directed by the clinic staff—one inhalation at least 3 seconds in duration every 30 seconds for a total of 30 inhalations. Each vaporizer contained a 1.8 v/v % nicotine solution in a PG vehicle. […]
# The samples were kept at room temperature prior to centrifuge, and were centrifuged at 2500 RPM for 15 minutes at 4° C. within 60 minutes of collection. […] (+/− 10° C.) or below (within 90 minutes from collection) until analyzed by Celerion Bioanalytical Services. […]
# Plasma PG (labeled and unlabeled) and nicotine were analyzed by LC-MS/MS using analytical methods with appropriate quality controls in accordance with FDA Good Laboratory Practice (GLP) regulations (Title 21 CFR Part 58). […]
# [2] = tested on: rabbit; details: cited from earlier work
# [3] = in vivo; cited from earlier work
compound,measurement,setting,value
"[13CH3][13CH](O)[13CH2]O (stereo not drawn) [Species A3, Propyleneglycol-^13C3]",blood concentration of labeled propylene glycol,"[1]; non-vaping subjects (Subjects 4-6), in room with vaping subjects, FIG. 2",essentially no detectable levels
"OCC(O)CO [glycerol, propane-1,2,3-triol]",acute oral toxicity LD50,"[2]; in vivo, po","10,000 mg/kg"
"propane-1,2-diol [propylene glycol]",acute oral toxicity LD50,[2]; oral,18500 mg/kg
same,blood concentration of unlabeled propylene glycol,"[1]; all subjects (Subjects 1-6), meal high in PG at about 4 hours, FIG. 3",significant
same,excreted by the kidneys unchanged or as the glucuronide conjugate,[3],approximately 45%
same,half-life,[3],approximately 4 hours
